Laboratory results as given in ChEMBL document CHEMBL1201862, “PubChem BioAssay data set” (2004).
Activity calls are given as the source filed them.

Key:
Troponin, cardiac muscle = Troponin, cardiac muscle (Homo sapiens, UniProt P19429+P45379+P63316); assay: Fluorescence-based biochemical high throughput dose response assay for activators of the calcium sensitivity of cardiac Regulated Thin Filaments (RTF). [Related pubchem assays (depositor defined):AID493008, AID493018, AID504382, AID504383]; type: protein-complex assay
[1] = target: Voltage-gated inwardly rectifying potassium channel KCNH2 (Homo sapiens, UniProt Q12809); conditions: Potency;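 note: confirmatory quantitative high-throughput screen measuring inhibition of hERG channel activity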
[2] = target: T1, Tyrosine-protein phosphatase non-receptor type 7 (Homo sapiens, UniProt P35236); type: functional
T1 sequence (P35236 whole entry): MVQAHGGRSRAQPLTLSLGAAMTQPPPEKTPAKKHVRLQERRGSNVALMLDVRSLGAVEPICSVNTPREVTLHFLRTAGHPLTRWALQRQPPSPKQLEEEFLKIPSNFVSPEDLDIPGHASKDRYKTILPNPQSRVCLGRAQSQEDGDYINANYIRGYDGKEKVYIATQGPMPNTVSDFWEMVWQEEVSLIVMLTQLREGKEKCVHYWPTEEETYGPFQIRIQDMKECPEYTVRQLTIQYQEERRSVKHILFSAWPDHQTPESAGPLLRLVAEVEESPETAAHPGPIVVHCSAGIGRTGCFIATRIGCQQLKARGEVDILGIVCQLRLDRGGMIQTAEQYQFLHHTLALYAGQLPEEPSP

[3] = target: T2, Tyrosine-protein phosphatase non-receptor type 22 (Homo sapiens, UniProt Q9Y2R2); type: functional
T2 sequence (Q9Y2R2 whole entry): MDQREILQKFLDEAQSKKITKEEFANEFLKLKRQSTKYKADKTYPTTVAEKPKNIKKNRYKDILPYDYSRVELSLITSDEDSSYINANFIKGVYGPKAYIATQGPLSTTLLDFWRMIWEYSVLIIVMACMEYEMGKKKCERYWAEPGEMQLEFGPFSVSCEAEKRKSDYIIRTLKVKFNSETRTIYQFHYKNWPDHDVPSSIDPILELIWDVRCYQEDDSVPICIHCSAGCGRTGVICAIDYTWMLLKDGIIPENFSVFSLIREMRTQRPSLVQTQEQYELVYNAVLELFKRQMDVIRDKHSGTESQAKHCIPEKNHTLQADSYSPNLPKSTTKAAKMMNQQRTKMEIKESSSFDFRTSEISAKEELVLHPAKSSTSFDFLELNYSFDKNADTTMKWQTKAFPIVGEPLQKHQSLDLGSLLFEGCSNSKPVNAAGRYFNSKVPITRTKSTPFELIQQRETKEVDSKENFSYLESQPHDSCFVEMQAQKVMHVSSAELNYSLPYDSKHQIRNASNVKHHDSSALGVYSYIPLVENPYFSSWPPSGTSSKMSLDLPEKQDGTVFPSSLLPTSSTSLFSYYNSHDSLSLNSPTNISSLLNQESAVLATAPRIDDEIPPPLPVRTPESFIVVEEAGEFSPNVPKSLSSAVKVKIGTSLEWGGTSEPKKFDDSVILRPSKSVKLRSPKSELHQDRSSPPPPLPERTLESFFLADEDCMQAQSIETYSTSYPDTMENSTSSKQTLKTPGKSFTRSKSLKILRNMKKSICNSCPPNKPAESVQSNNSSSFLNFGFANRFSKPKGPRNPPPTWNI

[4] = target: T2, Tyrosine-protein phosphatase non-receptor type 22; type: functional; remark: listed apart in the source
[5] = target: T1, Tyrosine-protein phosphatase non-receptor type 7; assay: HePTP (PTPN7) phosphatase inhibitor potency, SAR follow-up, biochemical, set 2 (AID 449736); type: functional
Trypsin = Trypsin (Sus scrofa, UniProt P00761); assay: porcine trypsin inhibitors, dose response, selectivity assay for Rce1 protease inhibitor project, biochemical, quenched peptide fluorescence, cherry-pick (AID 488789)
Sequence of Trypsin (P00761 whole entry): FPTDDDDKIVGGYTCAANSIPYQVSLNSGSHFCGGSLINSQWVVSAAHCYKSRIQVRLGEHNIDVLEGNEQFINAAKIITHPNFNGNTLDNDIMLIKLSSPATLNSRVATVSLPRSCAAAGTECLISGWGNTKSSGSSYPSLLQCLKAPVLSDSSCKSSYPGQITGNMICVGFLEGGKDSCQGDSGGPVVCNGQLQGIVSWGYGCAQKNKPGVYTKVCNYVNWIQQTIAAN

[6] = target: T3, Mannose-6-phosphate isomerase (Homo sapiens, UniProt P34949); assay: PMI enzyme inhibitors, confirmation, biochemical, fluorescence intensity (AID 1535)
T3 sequence (P34949 whole entry): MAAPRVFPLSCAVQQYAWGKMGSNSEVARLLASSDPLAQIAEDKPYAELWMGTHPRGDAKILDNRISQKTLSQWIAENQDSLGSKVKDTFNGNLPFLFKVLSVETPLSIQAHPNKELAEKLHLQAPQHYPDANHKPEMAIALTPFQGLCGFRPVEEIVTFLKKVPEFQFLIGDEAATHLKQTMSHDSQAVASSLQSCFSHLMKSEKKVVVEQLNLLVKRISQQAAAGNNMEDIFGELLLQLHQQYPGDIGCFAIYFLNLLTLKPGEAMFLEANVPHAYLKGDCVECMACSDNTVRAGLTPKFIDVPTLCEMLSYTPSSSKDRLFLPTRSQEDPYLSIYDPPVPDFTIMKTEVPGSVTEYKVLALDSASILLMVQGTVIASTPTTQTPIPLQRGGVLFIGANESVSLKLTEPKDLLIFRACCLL

Phosphomannomutase 2 = Phosphomannomutase 2 (Homo sapiens, UniProt O15305); assay: Counter screen SAR assay for PMM2 inhibitors via a fluorescence intensity assay. [Related pubchem assays (depositor defined):AID1545, AID1574]
Sequence of Phosphomannomutase 2 (O15305 whole entry): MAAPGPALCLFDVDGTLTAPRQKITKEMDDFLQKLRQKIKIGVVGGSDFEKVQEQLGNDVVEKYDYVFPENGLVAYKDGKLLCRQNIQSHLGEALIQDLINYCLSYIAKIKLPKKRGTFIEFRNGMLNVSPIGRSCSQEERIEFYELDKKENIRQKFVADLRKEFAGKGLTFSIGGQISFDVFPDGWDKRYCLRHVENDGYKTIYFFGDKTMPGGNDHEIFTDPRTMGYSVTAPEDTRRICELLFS

[7] = target: E3 ubiquitin-protein ligase XIAP (Homo sapiens, UniProt P98170); assay: Counter Screen using XIAP-Bir3 for Chemical Antagonists of Bir1/2 domains of IAP-family anti-apoptotic proteins. [Related pubchem assays (depositor defined):AID1018, AID1449, AID1514, AID1638, AID1749, AID1750, AID488957, AID488963]
Sequence of E3 ubiquitin-protein ligase XIAP (P98170 whole entry): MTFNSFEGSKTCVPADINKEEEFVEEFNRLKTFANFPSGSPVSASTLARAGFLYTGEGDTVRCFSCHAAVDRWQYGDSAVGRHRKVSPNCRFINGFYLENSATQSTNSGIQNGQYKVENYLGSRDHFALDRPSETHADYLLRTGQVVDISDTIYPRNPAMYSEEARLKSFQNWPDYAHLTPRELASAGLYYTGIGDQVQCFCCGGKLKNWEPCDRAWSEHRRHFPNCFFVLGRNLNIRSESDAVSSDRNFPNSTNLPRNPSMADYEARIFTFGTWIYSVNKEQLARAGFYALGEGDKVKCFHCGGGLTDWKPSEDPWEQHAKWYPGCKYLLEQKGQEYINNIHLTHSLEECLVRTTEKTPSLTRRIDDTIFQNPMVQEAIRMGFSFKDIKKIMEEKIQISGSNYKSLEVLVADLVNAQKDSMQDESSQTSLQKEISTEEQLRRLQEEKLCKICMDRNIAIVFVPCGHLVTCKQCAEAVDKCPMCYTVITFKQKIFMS

[8] = target: Eukaryotic translation initiation factor 4H (Homo sapiens, UniProt Q15056); assay: human eIF4H binding inhibitors, primary screen, translation initiation inhibitor project, biochemical, uHTS, fluorescence polarization (AID 2012)
[9] = tested on: Streptococcus sp. 'group A'; assay: growth inhibition of control SK(-) GAS strain, dose response, counter-screen for streptokinase expression inhibitor project, luminescence, kanamycin, BacTiterGlo, confirmation (AID 1900); type: functional, organism-based
Streptokinase A = target: T4, Streptokinase A (Streptococcus pyogenes serotype M1, UniProt P10520); assay: S. pyogenes streptokinase expression inhibitors, potency, dose response, plasminogen activation absorbance, OD405 (AID 1914); type: functional, Streptococcus pyogenes M1 GAS;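 note: secreted streptokinase activity via plasminogen activation per viability signal from cell pellet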
T4 sequence (P10520 whole entry): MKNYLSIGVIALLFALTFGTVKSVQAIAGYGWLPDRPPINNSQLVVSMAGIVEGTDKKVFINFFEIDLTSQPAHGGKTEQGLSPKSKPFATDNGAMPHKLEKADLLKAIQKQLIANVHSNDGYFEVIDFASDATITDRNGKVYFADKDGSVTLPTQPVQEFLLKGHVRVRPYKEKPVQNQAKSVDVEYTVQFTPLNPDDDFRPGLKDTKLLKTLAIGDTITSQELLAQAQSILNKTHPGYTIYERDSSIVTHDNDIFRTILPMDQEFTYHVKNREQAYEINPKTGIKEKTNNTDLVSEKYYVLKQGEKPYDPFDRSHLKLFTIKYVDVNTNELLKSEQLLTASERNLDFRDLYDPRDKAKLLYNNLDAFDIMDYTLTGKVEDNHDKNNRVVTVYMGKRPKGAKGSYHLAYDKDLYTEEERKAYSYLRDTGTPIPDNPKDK

Streptococcus = assay: Group A Streptococcus viability loss, dose response, counter-screen for streptokinase expression inhibitor project, luminescence, BacTiterGlo (AID 1915); type: functional, organism-based;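 note: potency for reduction of bacterial viability or growth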
[10] = target: Polyadenylate-binding protein 1 (Homo sapiens, UniProt P11940); assay: PABP poly(A) RNA binding inhibitors, primary screen, biochemical, fluorescence polarization, uHTS (AID 2014)
[11] = target: T5, Carboxy-terminal domain RNA polymerase II polypeptide A small phosphatase 1 (Homo sapiens, UniProt Q9GZU7); assay: inhibitors of CTDSP1, concentration-response testing, biochemical assay, absorbance-based, actives from ultra-high-throughput screening (AID 540297); type: functional
T5 sequence (Q9GZU7 whole entry): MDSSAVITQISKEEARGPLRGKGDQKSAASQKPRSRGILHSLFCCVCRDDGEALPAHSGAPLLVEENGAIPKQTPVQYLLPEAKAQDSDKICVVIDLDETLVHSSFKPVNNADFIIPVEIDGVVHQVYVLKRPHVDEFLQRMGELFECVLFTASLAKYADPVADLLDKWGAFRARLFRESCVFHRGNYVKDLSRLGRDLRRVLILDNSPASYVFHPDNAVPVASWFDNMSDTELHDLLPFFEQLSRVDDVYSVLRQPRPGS

Beta-galactosidase = Beta-galactosidase (Escherichia coli, UniProt Q8VNN2); assay: beta-galactosidase enzyme inhibitors and activators, dose response, artefact control for CCR6 antagonist project, biochemical, E. coli enzyme, set 3 (AID 504712); type: functional
[12] = Fluorescence-based cell-based high throughput dose response assay for inhibitors of the interaction of nucleotide-binding oligomerization domain containing 2 (NOD2) and the receptor-interacting serine-threonine kinase 2 (RIPK2).; type: functional; conditions: Homo sapiens
[13] = THP-1 cell cytotoxicity, dose response, cytotoxicity control for Vif-APOBEC3G degradation inhibitor project, THP-1 cells (AID 1117359); type: functional; conditions: Human immunodeficiency virus 1, THP-1
[14] = target: Voltage-dependent T-type calcium channel subunit alpha-1H (Homo sapiens, UniProt O95180); assay: Cav3.2 T-type channel inhibitors, cell-based, synthetic library set 1, calcium flux (AID 493022); type: functional
Sequence of Voltage-dependent T-type calcium channel subunit alpha-1H (O95180 whole entry): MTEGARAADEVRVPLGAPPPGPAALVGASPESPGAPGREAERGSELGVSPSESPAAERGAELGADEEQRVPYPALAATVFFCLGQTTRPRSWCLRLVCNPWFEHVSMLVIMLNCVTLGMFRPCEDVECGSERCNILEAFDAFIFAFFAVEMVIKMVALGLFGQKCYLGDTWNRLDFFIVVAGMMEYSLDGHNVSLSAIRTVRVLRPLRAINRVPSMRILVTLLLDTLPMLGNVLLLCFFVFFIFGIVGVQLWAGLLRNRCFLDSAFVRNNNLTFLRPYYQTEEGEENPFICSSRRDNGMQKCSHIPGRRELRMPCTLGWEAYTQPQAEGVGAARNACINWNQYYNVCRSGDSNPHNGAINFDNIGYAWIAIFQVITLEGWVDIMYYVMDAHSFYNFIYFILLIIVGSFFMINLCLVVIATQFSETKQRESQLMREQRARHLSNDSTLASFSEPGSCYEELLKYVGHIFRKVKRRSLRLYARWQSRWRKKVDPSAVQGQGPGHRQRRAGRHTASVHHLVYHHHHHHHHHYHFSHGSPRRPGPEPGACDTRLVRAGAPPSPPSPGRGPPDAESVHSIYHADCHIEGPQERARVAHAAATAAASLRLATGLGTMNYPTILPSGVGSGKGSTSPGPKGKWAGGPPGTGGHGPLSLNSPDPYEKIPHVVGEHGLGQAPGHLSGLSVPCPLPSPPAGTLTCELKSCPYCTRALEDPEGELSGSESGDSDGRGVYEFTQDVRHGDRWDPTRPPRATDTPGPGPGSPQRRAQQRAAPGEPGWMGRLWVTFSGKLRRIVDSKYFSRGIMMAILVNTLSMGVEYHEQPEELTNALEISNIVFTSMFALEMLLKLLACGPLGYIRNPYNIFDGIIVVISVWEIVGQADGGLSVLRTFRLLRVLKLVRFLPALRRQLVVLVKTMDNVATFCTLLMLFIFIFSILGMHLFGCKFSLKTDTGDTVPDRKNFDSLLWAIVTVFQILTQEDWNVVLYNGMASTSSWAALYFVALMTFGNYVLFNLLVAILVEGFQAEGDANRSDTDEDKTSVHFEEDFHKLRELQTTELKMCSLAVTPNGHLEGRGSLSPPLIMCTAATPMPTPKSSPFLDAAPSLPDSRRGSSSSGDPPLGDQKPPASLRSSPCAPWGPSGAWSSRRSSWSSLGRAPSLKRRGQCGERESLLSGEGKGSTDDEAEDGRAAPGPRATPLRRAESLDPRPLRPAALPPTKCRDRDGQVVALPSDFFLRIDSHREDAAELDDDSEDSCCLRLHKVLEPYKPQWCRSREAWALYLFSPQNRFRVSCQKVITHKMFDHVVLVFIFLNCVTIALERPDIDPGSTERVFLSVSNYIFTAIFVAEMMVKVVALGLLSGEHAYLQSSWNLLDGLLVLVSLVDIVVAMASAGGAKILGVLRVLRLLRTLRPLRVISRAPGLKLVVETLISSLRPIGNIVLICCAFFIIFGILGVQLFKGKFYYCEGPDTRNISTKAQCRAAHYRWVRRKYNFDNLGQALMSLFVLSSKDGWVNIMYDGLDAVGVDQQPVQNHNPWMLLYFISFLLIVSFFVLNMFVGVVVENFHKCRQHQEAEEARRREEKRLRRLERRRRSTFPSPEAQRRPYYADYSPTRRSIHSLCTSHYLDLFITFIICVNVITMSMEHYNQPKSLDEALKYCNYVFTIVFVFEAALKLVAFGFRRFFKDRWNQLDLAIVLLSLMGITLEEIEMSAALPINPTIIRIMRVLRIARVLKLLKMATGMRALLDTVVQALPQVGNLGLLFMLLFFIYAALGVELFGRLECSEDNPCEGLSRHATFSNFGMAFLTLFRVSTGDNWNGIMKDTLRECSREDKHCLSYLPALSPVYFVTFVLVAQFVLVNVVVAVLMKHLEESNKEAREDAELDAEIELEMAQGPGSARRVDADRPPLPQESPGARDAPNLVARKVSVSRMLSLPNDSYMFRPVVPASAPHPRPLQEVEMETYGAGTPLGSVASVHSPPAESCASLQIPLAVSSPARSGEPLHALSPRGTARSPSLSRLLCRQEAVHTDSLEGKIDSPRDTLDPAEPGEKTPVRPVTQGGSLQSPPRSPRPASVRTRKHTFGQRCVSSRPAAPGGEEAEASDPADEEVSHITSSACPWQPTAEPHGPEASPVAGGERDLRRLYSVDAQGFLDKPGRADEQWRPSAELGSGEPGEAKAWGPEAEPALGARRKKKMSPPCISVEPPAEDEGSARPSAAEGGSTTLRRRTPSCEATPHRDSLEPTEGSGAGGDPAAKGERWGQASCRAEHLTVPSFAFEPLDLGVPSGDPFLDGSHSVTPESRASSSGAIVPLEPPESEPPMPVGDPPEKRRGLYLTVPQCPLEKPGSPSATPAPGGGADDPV

Wee1-like protein kinase = Wee1-like protein kinase (Homo sapiens, UniProt P30291); assay: G2/M cell cycle arrest in HeLa, late-stage follow-up, mechanism study for Wee1 degradation inhibitor project, FACS, panel member Wee1 Degradation (AID 2088)
Sequence of Wee1-like protein kinase (P30291 whole entry): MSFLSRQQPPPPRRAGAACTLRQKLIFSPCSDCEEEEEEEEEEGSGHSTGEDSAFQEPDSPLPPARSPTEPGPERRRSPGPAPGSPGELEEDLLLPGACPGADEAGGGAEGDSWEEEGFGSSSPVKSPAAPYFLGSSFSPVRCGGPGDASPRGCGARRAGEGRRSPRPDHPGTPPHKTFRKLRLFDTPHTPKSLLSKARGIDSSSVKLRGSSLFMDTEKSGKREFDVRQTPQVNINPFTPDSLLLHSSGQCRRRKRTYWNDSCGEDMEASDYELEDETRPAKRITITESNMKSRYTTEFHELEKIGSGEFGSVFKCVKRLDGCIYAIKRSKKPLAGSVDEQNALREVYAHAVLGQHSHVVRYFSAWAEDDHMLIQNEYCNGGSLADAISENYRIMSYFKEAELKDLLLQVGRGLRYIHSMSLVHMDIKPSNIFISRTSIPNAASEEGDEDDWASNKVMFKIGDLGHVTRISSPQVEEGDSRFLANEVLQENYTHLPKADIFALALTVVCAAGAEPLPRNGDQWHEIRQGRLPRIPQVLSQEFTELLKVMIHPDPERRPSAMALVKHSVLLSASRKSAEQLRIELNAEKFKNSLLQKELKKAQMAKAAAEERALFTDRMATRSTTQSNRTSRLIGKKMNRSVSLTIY

[15] = target: G2/mitotic-specific cyclin-B1 (Homo sapiens, UniProt P14635); assay: G2/M cell cycle arrest in HeLa, late-stage follow-up, mechanism study for Wee1 degradation inhibitor project, FACS, panel member Cyclin B Degradation (AID 2088)
Sequence of G2/mitotic-specific cyclin-B1 (P14635 whole entry): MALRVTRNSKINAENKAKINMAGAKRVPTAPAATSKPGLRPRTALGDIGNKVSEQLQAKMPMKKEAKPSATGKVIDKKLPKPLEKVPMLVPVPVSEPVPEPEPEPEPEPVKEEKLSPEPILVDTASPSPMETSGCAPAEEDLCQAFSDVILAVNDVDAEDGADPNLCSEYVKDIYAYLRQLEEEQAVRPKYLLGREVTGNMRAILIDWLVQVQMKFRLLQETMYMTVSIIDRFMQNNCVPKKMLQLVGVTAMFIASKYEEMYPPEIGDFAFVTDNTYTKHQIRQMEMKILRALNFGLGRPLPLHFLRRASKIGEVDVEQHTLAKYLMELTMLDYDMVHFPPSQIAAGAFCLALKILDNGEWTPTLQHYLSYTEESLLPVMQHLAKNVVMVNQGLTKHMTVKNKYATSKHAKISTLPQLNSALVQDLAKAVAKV

Jurkat = assay: SAR Analysis of small molecule inhibitors of […] specific antigen receptor-induced NF-kB activation in a Jurkat cell line using a luminescence assay - Set 3. [Related pubchem assays (depositor defined):AID435022, AID435025, AID465]; type: functional, cell-based; conditions: Homo sapiens
HEK293 [16] = assay: SAR Analysis of small molecule inhibitors of B-cell specific antigen receptor-induced NF-kB activation in a HEK-293T cell line using a luminescence assay - Set 2. [Related pubchem assays (depositor defined):AID435022, AID435025, AID489021]; type: functional, cell-based; conditions: Homo sapiens
HEK293 [17] = assay: cytotoxicity in HEK293T NF-kB-Luc cells, SAR follow-up, cytotoxicity control for NF-kB activator project, cell-based, resazurin fluorescence (AID 493251); type: functional; conditions: Homo sapiens
[18] = insulin promoter down-regulators in MIN6 cells, imaging, high-content screening, mouse beta cells (AID 1628); type: functional
[19] = cytotoxicity in MIN6 insulinoma cells, dose response, cytotoxicity control, cell-based, mouse insulinoma (AID 2122); type: functional;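 note: confirmatory high-throughput counterscreen run to flag cytotoxic compounds; mouse MIN-6 beta cells carrying an insulin promoter eGFP reporter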
[20] = target: Glyceraldehyde-3-phosphate dehydrogenase (Homo sapiens, UniProt P04406)
[21] = target: Alkaline phosphatase, placental type (Homo sapiens, UniProt P05187); assay: PLAP enzyme inhibitors, confirmation, biochemical, luminescence (AID 1512); type: functional
Sequence of Alkaline phosphatase, placental type (P05187 whole entry): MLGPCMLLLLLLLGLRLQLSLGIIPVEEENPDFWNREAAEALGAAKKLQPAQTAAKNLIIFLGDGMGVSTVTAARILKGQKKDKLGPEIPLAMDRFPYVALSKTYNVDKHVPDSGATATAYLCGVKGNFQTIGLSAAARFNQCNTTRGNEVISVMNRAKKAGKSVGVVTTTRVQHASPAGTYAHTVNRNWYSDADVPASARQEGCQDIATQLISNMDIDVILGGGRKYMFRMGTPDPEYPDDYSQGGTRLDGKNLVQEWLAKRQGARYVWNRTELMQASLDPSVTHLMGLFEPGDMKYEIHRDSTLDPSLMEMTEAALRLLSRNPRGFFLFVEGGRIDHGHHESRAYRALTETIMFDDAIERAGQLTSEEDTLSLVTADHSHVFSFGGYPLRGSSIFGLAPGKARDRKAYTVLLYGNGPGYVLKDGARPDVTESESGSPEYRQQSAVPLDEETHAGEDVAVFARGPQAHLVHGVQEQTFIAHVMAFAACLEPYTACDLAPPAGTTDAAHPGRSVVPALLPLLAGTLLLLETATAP

CCOC(=O)/C(=C\c1c[nH]c2ccccc12)NC(C)=O
EC50 (Troponin, cardiac muscle): > 71.4 µM (inactive)

CC(C)COC(=O)c1ccccc1C(=O)OCC(C)C
AC50 [1]: 35.5 µM (inconclusive)

O=C(c1cc2cc(F)ccc2[nH]1)N1CCN(C(=O)c2ccco2)CC1
IC50 [2]: > 79.4 µM (inactive) | IC50 [3]: > 79.4 µM (inactive) | IC50 [4]: > 79.4 µM (inactive)

NS(=O)(=O)c1ccc(NC(S)=NC2CCCC2)cc1
IC50 [5]: 28 µM (active)

NS(=O)(=O)c1ccc(NC(=O)/C=C/c2cn(-c3ccccc3)nc2-c2cccc(Cl)c2)cc1
AC50 (Trypsin): 81.4 µM (active)

Sc1n[nH]c(-c2ccccc2Cl)n1
IC50 [6]: > 50 µM (inactive) | IC50 (Phosphomannomutase 2): > 100 µM (inactive)

Cc1ccc(C(=O)COc2ccccc2C(=O)Nc2ccccc2)cc1
IC50 [7]: > 20 µM (inactive)

O=C(Nc1ccc2c(c1)OCCO2)c1cccc(Cl)c1Cl
EC50 (Troponin, cardiac muscle): > 71.4 µM (inactive)

COc1ccc(C(CC(=O)N2CCCC(C)C2)c2c(OC)cc(OC)c3c(-c4ccccc4)cc(=O)oc23)cc1 (stereo unspecified)
IC50 [8]: 8.23 µM (active) | EC50 [9]: 14.5 µM (active) | EC50 (Streptokinase A): 41.2 µM (active) | EC50 (Streptococcus): > 150 µM (not active) | IC50 [10]: 28.3 µM (active) | IC50 [11]: 7.99 µM (active)

CCOC(=O)c1cc([N+](=O)[O-])cc([N+](=O)[O-])c1Sc1[nH]cnc2ncnc1-2
IC50 (Beta-galactosidase): > 66.6 µM (inactive) | IC50 [12]: 3.29 µM (active) | CC50 [13]: 1.6 µM (active)

Cc1ccc(-c2nnc(NC(=O)COc3ccc(F)cc3)o2)cc1C
EC50 [14]: 10 µM (active)

CSc1cccc(NC(=O)CCCOc2cc(=O)n(C)c3ccccc23)c1
EC50 (Wee1-like protein kinase): > 49.7 µM (inactive) | EC50 [15]: > 49.7 µM (inactive)

O=C(COc1ccc(F)cc1Cl)Nc1nnc(-c2ccc3ccccc3c2)o1
EC50 [14]: 3.6 µM (active)

Cc1cc(O)nc(-n2nc(C)cc2NC(=O)c2ccccc2)n1
EC50 (Wee1-like protein kinase): > 16.6 µM (active) | EC50 [15]: > 49.7 µM (inactive)

CCOc1ccc(-c2nc(CSCC(=O)NCc3cccs3)c(C)o2)cc1
IC50 (Jurkat): > 80 µM (inactive) | IC50 (HEK293 [16]): 24.3 µM (inactive) | IC50 (HEK293 [17]): 34.8 µM (inactive)

CCCNC(=O)CCc1nc(-c2ccc(C(C)(C)C)cc2)no1
IC50 (Jurkat): > 80 µM (inactive) | IC50 (HEK293 [16]): 9.19 µM (active) | IC50 (HEK293 [17]): > 80 µM (inactive)

Cn1c(N2CCOCC2)c(/C=N/OC(=O)c2cccnc2Cl)c2ccccc21
IC50 [18]: 3.37 µM (active) | IC50 [19]: 1.4 µM (active)

CC(C)(C)NC(=O)c1cc(-c2ccc(Cl)cc2Cl)n[nH]1
IC50 [20]: > 100 µM (not active) | IC50 [21]: > 100 µM (inactive)
